# How the values were obtained:
# [1] = Microsomal stability, human; format: in vitro ADME; conditions: human liver microsomes, 3 μM compound, 37° C.
# Procedure: A 10 mM stock solution of compound in DMSO was diluted 1000 fold in a 182 mM phosphate buffer pH 7.4 in a 96 deep well plate (Greiner, Cat no. 780285) and pre-incubated at 37° C.
# 40 μL of deionised water was added to a well of a polypropylene Matrix 2D barcode labelled storage tube (Thermo Scientific) and pre-incubated at 37° C.
# A Glucose-6-phosphate-dehydrogenase (G6PDH) working stock solution was prepared in 182 mM phosphate buffer pH7.4 and placed on ice before use. A co-factor containing MgCl2, glucose-6-phosphate and NADP+ was prepared in deionised water and placed on ice before use.
# A final working solution containing liver microsomes (Xenotech) of a species of interest (human, mouse, rat, dog), previously described G6PDH and co-factors was prepared and this mix was incubated for no longer than 20 minutes at room temperature.
# 30 μL of the pre-heated compound dilution was added to 40 μL of pre-heated water in the Matrix tubes and 30 μL of the microsomal mix was added. Final reaction concentrations were 3 μM compound, 1 mg microsomes, 0.4 U/mL GDPDH, 3.3 mM MgCl2, 3.3 mM glucose-6-phosphate and 1.3 mM NADP+.
# To measure percentage remaining of compound at time zero MeOH or ACN was added (1:1) to the well before adding the microsomal mix. The plates were sealed with Matrix Sepra Seals™ (Matrix, Cat. No. 4464) and shaken for a few seconds ensure complete mixing of all components.
# The samples which were not stopped are incubated at 37° C., 300 rpm and after 1 hour of incubation the reaction was stopped with MeOH or ACN (1:1).
# After stopping the reaction the samples were mixed and placed on ice for 30 min to precipitate the proteins. The plates were then centrifuged 30 min at 1200 rcf at 4° C. and the supernatant was transferred to a 96 v-bottom PP plate (Greiner, 651201) for analysis on LCMS.
# These plates were sealed with sealing mats (MA96RD-04S) of www.kinesis.co.uk and samples were measured at room temperature on LCMS (ZQ 1525 from Waters) under optimized conditions using Quanoptimize to determine the appropriate mass of the parent molecule.
# The samples were analyzed on LCMS with a flow rate of 1 mL/min. Solvent A was 15 mM ammonia and solvent B was methanol or acetonitrile, depending on the stop solution used. The samples were run under positive ion spray on an XBridge C18 […] (2.1×30 mm) column, from Waters.
# Peak area from the parent compound at time 0 was considered to be 100% remaining. The percentage remaining after 1 hour incubation was calculated from time 0 and was calculated as the percentage remaining. The solubility of the compound in the final test concentration in buffer is inspected by microscope and results are reported.
# The data on microsomal stability are expressed as a percentage of the total amount of compound remaining after 60 minutes.
# [2] = tested on: Collagen Induced Arthritis (CIA); assay: rat CIA model; format: in vivo
# Procedure: Completed Freund's adjuvant (CFA) and incomplete Freund's adjuvant (IFA) were purchased from Difco. Bovine collagen type II (CII), lipopolysaccharide (LPS), and Enbrel were obtained from Chondrex (Isle d'Abeau, France); Sigma (P4252, L'Isle d'Abeau, France), Whyett (25 mg injectable syringe, France) Acros Organics (Palo Alto, Calif.), respectively. All other reagents used were of reagent grade and all solvents were of analytical grade.
# Dark Agouti rats (male, 7-8 weeks old) were obtained from Harlan Laboratories (Maison-Alfort, France). Rats were kept on a 12 hours light/dark cycle (0700-1900). The temperature was maintained at 22° C., and food and water were provided ad libitum.
# One day before the experiment, CII solution (2 mg/mL) was prepared with 0.05 M acetic acid and stored at 4° C. Just before the immunization, equal volumes of adjuvant (IFA) and CII were mixed by a homogenizer in a pre-cooled glass bottle in an ice water bath. Extra adjuvant and prolonged homogenization might be required if an emulsion is not formed. 0.2 mL of the emulsion was injected intradermally at the base of the tail of each rat on day 1, a second booster intradermal injection (CII solution at 2 mg/mL in CFA 0.1 mL saline) was performed on day 9. This immunization method was modified from published methods (Sims et al, 2004; Jou et al., 2005).
# The therapeutic effects of the test compounds were tested in the rat CIA model. Rats were randomly divided into equal groups and each group contained 10 rats. All rats were immunized on day 1 and boosted on day 9. Therapeutic dosing lasted from day 16 to day 30. The negative control group was treated with vehicle (MC 0.5%) and the positive control group with Enbrel (10 mg/kg, 3× week, s.c.). A compound of interest was typically tested at 3 doses, e.g. 3, 10, 30 mg/kg, p.o.
# Arthritis was scored according to the method of Khachigian 2006, Lin et al 2007 and Nishida et al. 2004). The swelling of each of the four paws was ranked with the arthritic score as follows: 0—no symptoms; 1—mild, but definite redness and swelling of one type of joint such as the ankle or wrist, or apparent redness and swelling limited to individual digits, regardless of the number of affected digits; 2—moderate redness and swelling of two or more types of joints; 3—severe redness and swelling of the entire paw including digits; 4—maximally inflamed limb with involvement of multiple joints (maximum cumulative clinical arthritis score 16 per animal) (Nishida et al., 2004).
# The change in body weight (%) after onset of arthritis was calculated as follows: […]
# X-ray photos were taken of the hind paws of each individual animal. […]
Compound,"Microsomal stability Human (%), compound remaining after 60 minutes [1]",further results
"O=C(Nc1nc2cccc(-c3ccc(OCc4ccc(C(F)(F)F)nc4)cc3)n2n1)C1CC1 [Compound 78, N-(5-(4-((6-(trifluoromethyl)pyridin-3-yl)methoxy)phenyl)-[1,2,4]triazolo[1,5-a]pyridin-2-yl)cyclopropanecarboxamide]",78.21%,
"N#Cc1ccc(COc2ccc(-c3cccc4nc(NC(=O)C5CC5)nn34)cc2)cn1 [Compound 176, N-(5-(4-((6-cyanopyridin-3-yl)methoxy)phenyl)-[1,2,4]triazolo[1,5-a]pyridin-2-yl)cyclopropanecarboxamide]",157.1%,"clinical score, rat CIA study ([2]; 3 mg/kg): Statistical significance; paw swelling, rat CIA study ([2]; 3 mg/kg): Statistical significance; efficacy in the rat CIA study, all readouts ([2]; rat, p.o., day 16 to day 30): efficacious in all readouts"
"CC(=O)Nc1ccc(COc2ccc(-c3cccc4nc(NC(=O)C5CC5)nn34)cc2)cc1 [Compound 92, N-(5-(4-(4-acetamidobenzyloxy)phenyl)-[1,2,4]triazolo[1,5-a]pyridin-2-yl)cyclopropanecarboxamide]",30.21%,
"O=C(Nc1nc2cccc(-c3ccc(NCc4ccccc4)cc3)n2n1)C1CC1 [Compound 72, N-(5-(4-(benzylamino)phenyl)-[1,2,4]triazolo[1,5-a]pyridin-2-yl)cyclopropanecarboxamide]",4.88%,
"O=C(Nc1nc2cccc(-c3ccc(OCc4ccccc4)nc3)n2n1)C1CC1 [Compound 57, Cyclopropanecarboxylic acid [5-(6-benzyloxy-pyridin-3-yl)-[1,2,4]triazolo[1,5-a]pyridin-2-yl]-amide]",42.75%,
"O=C(Nc1nc2cccc(-c3ccc(OCc4ccccc4)cc3)n2n1)C1CC1 [Compound 12, N-(5-(4-(benzyloxy)phenyl)-[1,2,4]triazolo[1,5-a]pyridin-2-yl)cyclopropanecarboxamide]",70%,
"O=C(Nc1nc2cccc(-c3ccc(OCc4cccnc4)cc3)n2n1)C1CC1 [Compound 36, N-(5-(4-(pyridin-3-ylmethoxy)phenyl)-[1,2,4]triazolo[1,5-a]pyridin-2-yl)cyclopropanecarboxamide]",11.65%,activity in the rat CIA study ([2]; 30 mg/kg): active
"O=C(Nc1nc2cccc(-c3ccc(OCc4ccccn4)cc3)n2n1)C1CC1 [Compound 37, N-(5-(4-(pyridin-2-ylmethoxy)phenyl)-[1,2,4]triazolo[1,5-a]pyridin-2-yl)cyclopropanecarboxamide]",70.98%,activity in the rat CIA study ([2]; 10 mg/kg): active

# Source: patent publication US8242274B2, “Triazolopyridine kinase inhibitors useful for the treatment of degenerative and inflammatory diseases” (Galapagos NV, priority 2008, dated 2012)
